This passage reports IC50 results from US20250215030A1, “STAT MODULATORS AND USES THEREOF” (Recludix Pharma, Inc., priority 2022, published 2025).

Some results are limits rather than exact numbers.

Assay [1] has as its target T1, Recombinant STAT6 protein (STAT6(W123-T658)) (Homo sapiens, UniProt P42226).
T1 construct: STAT6(W123-T658)
T1 sequence (P42226 123-658): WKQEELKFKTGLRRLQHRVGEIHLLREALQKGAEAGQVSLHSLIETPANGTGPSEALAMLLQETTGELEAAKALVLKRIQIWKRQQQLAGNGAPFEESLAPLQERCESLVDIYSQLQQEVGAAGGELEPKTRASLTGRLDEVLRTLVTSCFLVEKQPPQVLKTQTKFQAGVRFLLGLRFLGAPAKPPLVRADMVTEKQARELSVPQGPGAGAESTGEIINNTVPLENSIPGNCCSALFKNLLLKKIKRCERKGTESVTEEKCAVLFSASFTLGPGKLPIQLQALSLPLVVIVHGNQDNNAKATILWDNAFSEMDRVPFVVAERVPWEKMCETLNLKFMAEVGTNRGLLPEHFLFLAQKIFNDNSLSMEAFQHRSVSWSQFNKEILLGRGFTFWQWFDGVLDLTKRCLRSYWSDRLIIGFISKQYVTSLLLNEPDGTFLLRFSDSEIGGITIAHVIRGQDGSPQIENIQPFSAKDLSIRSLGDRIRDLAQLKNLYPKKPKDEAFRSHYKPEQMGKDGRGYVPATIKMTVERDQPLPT
Nature of the assay: STAT6 Fluorescence Polarization (FP) Assay. It counts as binding. Particulars: STAT6(W123-T658) 250 nM, probe 5-FAM-ApYKPFQDLI-NH2 2 nM, 45-minute incubation. A digest of the protocol: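 STAT6 (W123-T658) at 250 nM mixed with 2 nM 5-FAM-ApYKPFQDLI-NH2 probe in HEPES pH 7.4 buffer with DTT and Tween 20, 1% DMSO final. Polarization read after 45 min at room temperature; IC50 by nonlinear regression of mP versus log concentration, reported in bins A–D.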

Assay [2] deals with T2, Recombinant STAT3 protein (STAT3(G127-I722)) (Homo sapiens, UniProt P40763).
T2 construct: STAT3(G127-I722)
Nature of the assay: STAT3 Fluorescence Polarization (FP) Assay. It counts as binding. The following applies: STAT3(G127-I722) 25 nM, probe 5-FAM-GpYLPQTV-NH2 2 nM, 45-minute incubation. A digest of the protocol:
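STAT3(G127-I722) at 25 nM and 5-FAM-GpYLPQTV-NH2 probe at 2 nM in HEPES pH 7.4 buffer with NaCl, EDTA, Tween 20, DTT; 1% DMSO. FP read after 45 min at room temperature; IC50 by nonlinear regression of mP vs log concentration, binned A ≤100 nM to D >10 μM.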

T2 sequence (P40763 127-722, species assumed): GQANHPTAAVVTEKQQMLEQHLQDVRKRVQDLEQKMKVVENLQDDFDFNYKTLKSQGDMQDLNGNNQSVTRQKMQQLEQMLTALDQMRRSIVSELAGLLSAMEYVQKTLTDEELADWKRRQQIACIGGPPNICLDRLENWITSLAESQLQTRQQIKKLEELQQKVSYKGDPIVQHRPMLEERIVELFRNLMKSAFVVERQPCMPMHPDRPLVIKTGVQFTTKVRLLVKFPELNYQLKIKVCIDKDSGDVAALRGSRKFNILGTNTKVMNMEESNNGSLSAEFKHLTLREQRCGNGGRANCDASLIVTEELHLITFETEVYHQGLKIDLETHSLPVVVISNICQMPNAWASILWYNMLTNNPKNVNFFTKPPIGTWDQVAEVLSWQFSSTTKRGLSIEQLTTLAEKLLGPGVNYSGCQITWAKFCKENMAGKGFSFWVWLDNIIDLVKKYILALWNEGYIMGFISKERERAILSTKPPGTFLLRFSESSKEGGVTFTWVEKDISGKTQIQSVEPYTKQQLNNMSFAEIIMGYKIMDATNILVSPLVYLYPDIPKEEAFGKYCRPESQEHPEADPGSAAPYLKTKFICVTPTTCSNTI

As to `O=C(N[C@H]1C[C@@H]2C[C@@H]2C[C@H]2CC[C@@H](C(=O)N3CC(Oc4ccccn4)C3)N2C1=O)c1cc2cc(CP(=O)(O)O)ccc2s1` [Example 351, ((2-(((3S,6S,7aS,8aR,9aR)-5-oxo-3-(3-(pyridin-2-yloxy)azetidine-1-carbonyl)decahydro-1H-cyclopropa[d]pyrrolo[1,2-a]azocin-6-yl)carbamoyl)benzo[b]thiophen-5-yl)methyl)phosphonic acid], the values for the IC50 in assay [1] and in assay [2] were 3 to 30 µM and 100 to 1000 nM, respectively.

`O=C(N[C@H]1C[C@@H]2C[C@@H]2C[C@H]2CC[C@@H](C(=O)N3CC(Cc4ccncc4)C3)N2C1=O)c1cc2cc(CP(=O)(O)O)ccc2s1` [Example 352, ((2-(((3S,6S,7aS,8aR,9aR)-5-oxo-3-(3-(pyridin-4-ylmethyl)azetidine-1-carbonyl)decahydro-1H-cyclopropa[d]pyrrolo[1,2-a]azocin-6-yl)carbamoyl)benzo[b]thiophen-5-yl)methyl)phosphonic acid]: the IC50 in assay [1] is greater than 30 µM; in assay [2], 100 to 1000 nM.

Take `CC(=O)N1CC(NC(=O)[C@@H]2CC[C@@H]3C[C@H]4C[C@H]4C[C@H](NC(=O)c4cc5cc(C(F)P(=O)(O)O)ccc5s4)C(=O)N32)C(F)(F)C1` (stereo partly drawn) [Example 358, ((2-(((3S,6S,7aS,8aR,9aR)-3-((1-acetyl-4,4-difluoropyrrolidin-3-yl)carbamoyl)-5-oxodecahydro-1H-cyclopropa[d]pyrrolo[1,2-a]azocin-6-yl)carbamoyl)benzo[b]thiophen-5-yl)fluoromethyl)phosphonic acid]: the results for the IC50 in assay [1] and in assay [2] were 3 to 30 µM and 100 to 1000 nM, respectively.

Regarding `O=C(N[C@H]1C[C@@H]2C[C@@H]2C[C@H]2CC[C@@H](C(=O)N3CC(Cc4cncnc4)C3)N2C1=O)c1cc2cc(CP(=O)(O)O)ccc2s1` [Example 364, ((2-(((3S,6S,7aS,8aR,9aR)-5-oxo-3-(3-(pyrimidin-5-ylmethyl)azetidine-1-carbonyl)decahydro-1H-cyclopropa[d]pyrrolo[1,2-a]azocin-6-yl)carbamoyl)benzo[b]thiophen-5-yl)methyl)phosphonic acid], the IC50 is greater than 30 µM in assay [1] and 1000 to 10000 nM in assay [2].

On to `O=C(N[C@H]1C[C@@H]2C[C@@H]2C[C@H]2CC[C@@H](C(=O)N3CC(C(O)c4ccccc4)C3)N2C1=O)c1cc2cc(CP(=O)(O)O)ccc2s1` (stereo partly drawn) [Example 365, ((2-(((3S,6S,7aS,8aR,9aR)-3-(3-(hydroxy(phenyl)methyl)azetidine-1-carbonyl)-5-oxodecahydro-1H-cyclopropa[d]pyrrolo[1,2-a]azocin-6-yl)carbamoyl)benzo[b]thiophen-5-yl)methyl)phosphonic acid], for which the results for the IC50 in assay [1] and in assay [2] were 3 to 30 µM and 1000 to 10000 nM, respectively.

Regarding `Cc1nc(N2C[C@H](NC(=O)[C@@H]3CC[C@@H]4C[C@H]5C[C@H]5C[C@H](NC(=O)c5cc6cc(C(F)P(=O)(O)O)ccc6s5)C(=O)N43)[C@@H](F)C2)n[nH]1` (stereo partly drawn) [Example 366, (fluoro(2-(((3S,6S,7aS,8aR,9aR)-3-(((3S,4S)-4-fluoro-1-(5-methyl-1H-1,2,4-triazol-3-yl)pyrrolidin-3-yl)carbamoyl)-5-oxodecahydro-1H-cyclopropa[d]pyrrolo[1,2-a]azocin-6-yl)carbamoyl)benzo[b]thiophen-5-yl)methyl)phosphonic acid], the results for the IC50 in assay [1] and in assay [2] were 3 to 30 µM and 100 to 1000 nM, respectively.

On to `Cn1ccnc1N1C[C@H](NC(=O)[C@@H]2CC[C@@H]3C[C@H]4C[C@H]4C[C@H](NC(=O)c4cc5cc(C(F)P(=O)(O)O)ccc5s4)C(=O)N32)[C@@H](F)C1` (stereo partly drawn) [Example 367, (fluoro(2-(((3S,6S,7aS,8aR,9aR)-3-(((3S,4S)-4-fluoro-1-(1-methyl-1H-imidazol-2-yl)pyrrolidin-3-yl)carbamoyl)-5-oxodecahydro-1H-cyclopropa[d]pyrrolo[1,2-a]azocin-6-yl)carbamoyl)benzo[b]thiophen-5-yl)methyl)phosphonic acid], for which the IC50 in assay [1] was 3 to 30 µM; in assay [2] it was less than 100 nM.

For the compound `O=C(N[C@H]1C[C@@H]2C[C@@H]2C[C@H]2CC[C@@H](C(=O)N3CC(Cc4ccccc4F)C3)N2C1=O)c1cc2cc(CP(=O)(O)O)ccc2s1` [Example 368, ((2-(((3S,6S,7aS,8aR,9aR)-3-(3-(2-fluorobenzyl)azetidine-1-carbonyl)-5-oxodecahydro-1H-cyclopropa[d]pyrrolo[1,2-a]azocin-6-yl)carbamoyl)benzo[b]thiophen-5-yl)methyl)phosphonic acid], the IC50 is 3 to 30 µM in assay [1] and 1000 to 10000 nM in assay [2].

On to `O=C(N[C@H]1C[C@@H]2C[C@@H]2C[C@H]2CC[C@@H](C(=O)N3CC(Cc4ccc(F)cc4)C3)N2C1=O)c1cc2cc(CP(=O)(O)O)ccc2s1` [Example 369, ((2-(((3S,6S,7aS,8aR,9aR)-3-(3-(4-fluorobenzyl)azetidine-1-carbonyl)-5-oxodecahydro-1H-cyclopropa[d]pyrrolo[1,2-a]azocin-6-yl)carbamoyl)benzo[b]thiophen-5-yl)methyl)phosphonic acid], for which the IC50 in assay [1] lay within 3 to 30 µM; in assay [2], 100 to 1000 nM.

On to `O=C(N[C@H]1C[C@@H]2C[C@@H]2C[C@H]2CC[C@@H](C(=O)N3CCOc4ccccc43)N2C1=O)c1cc2cc(C(F)P(=O)(O)O)ccc2s1` (stereo partly drawn) [Example 372, ((2-(((3S,6S,7aS,8aR,9aR)-3-(3,4-dihydro-2H-benzo[b][1,4]oxazine-4-carbonyl)-5-oxodecahydro-1H-cyclopropa[d]pyrrolo[1,2-a]azocin-6-yl)carbamoyl)benzo[b]thiophen-5-yl)fluoromethyl)phosphonic acid], for which the IC50 in assay [1] was 3 to 30 µM; in assay [2], 1000 to 10000 nM.

Regarding `O=C(N[C@H]1C[C@@H]2C[C@@H]2C[C@H]2CC[C@@H](C(=O)N3CCCOc4ccccc43)N2C1=O)c1cc2cc(C(F)P(=O)(O)O)ccc2s1` (stereo partly drawn) [Example 373, (fluoro(2-(((3S,6S,7aS,8aR,9aR)-5-oxo-3-(2,3,4,5-tetrahydrobenzo[b][1,4]oxazepine-5-carbonyl)decahydro-1H-cyclopropa[d]pyrrolo[1,2-a]azocin-6-yl)carbamoyl)benzo[b]thiophen-5-yl)methyl)phosphonic acid], the IC50 in assay [1] was 3 to 30 µM; in assay [2] it was 1000 to 10000 nM.

Consider `O=C(N[C@H]1C[C@@H]2C[C@@H]2C[C@H]2CC[C@@H](C(=O)N3CC(c4cc(C(F)F)on4)C3)N2C1=O)c1cc2cc(C(F)P(=O)(O)O)ccc2s1` (stereo partly drawn) [Example 375, ((2-(((3S,6S,7aS,8aR,9aR)-3-(3-(5-(difluoromethyl)isoxazol-3-yl)azetidine-1-carbonyl)-5-oxodecahydro-1H-cyclopropa[d]pyrrolo[1,2-a]azocin-6-yl)carbamoyl)benzo[b]thiophen-5-yl)fluoromethyl)phosphonic acid], for which the IC50 in assay [1] lay within 3 to 30 µM; in assay [2], 100 to 1000 nM.

On to `Cc1cnc(N2C[C@H](NC(=O)[C@@H]3CC[C@@H]4C[C@H]5C[C@H]5C[C@H](NC(=O)c5cc6cc(C(F)P(=O)(O)O)ccc6s5)C(=O)N43)[C@@H](F)C2)n1C` (stereo partly drawn) [Example 376, ((2-(((3S,6S,7aS,8aR,9aR)-3-(((3S,4S)-1-(1,5-dimethyl-1H-imidazol-2-yl)-4-fluoropyrrolidin-3-yl)carbamoyl)-5-oxodecahydro-1H-cyclopropa[d]pyrrolo[1,2-a]azocin-6-yl)carbamoyl)benzo[b]thiophen-5-yl)fluoromethyl)phosphonic acid], for which the results for the IC50 in assay [1] and in assay [2] were 3 to 30 µM and less than 100 nM, respectively.

As for `O=C(N[C@H]1C[C@@H]2C[C@@H]2C[C@H]2CC[C@@H](C(=O)N3CC(Cc4ccc(F)cc4F)C3)N2C1=O)c1cc2cc(CP(=O)(O)O)ccc2s1` [Example 377, ((2-(((3S,6S,7aS,8aR,9aR)-3-(3-(2,4-difluorobenzyl)azetidine-1-carbonyl)-5-oxodecahydro-1H-cyclopropa[d]pyrrolo[1,2-a]azocin-6-yl)carbamoyl)benzo[b]thiophen-5-yl)methyl)phosphonic acid], the IC50 in assay [1] was 3 to 30 µM; in assay [2], 100 to 1000 nM.

With `O=C(N[C@H]1C[C@@H]2C[C@@H]2C[C@H]2CC[C@@H](C(=O)N3CC(Cc4cc(F)ccc4F)C3)N2C1=O)c1cc2cc(CP(=O)(O)O)ccc2s1` [Example 378, ((2-(((3S,6S,7aS,8aR,9aR)-3-(3-(2,5-difluorobenzyl)azetidine-1-carbonyl)-5-oxodecahydro-1H-cyclopropa[d]pyrrolo[1,2-a]azocin-6-yl)carbamoyl)benzo[b]thiophen-5-yl)methyl)phosphonic acid], the IC50 in assay [1] was 3 to 30 µM; in assay [2] it was 1000 to 10000 nM.
